The nature of data set [1]: Pharmacokinetics study in male SD rats, intravenous injection. The format is in vivo. Particulars: male, SD, rat, plasma, rats, 5 mg/kg. Here is the method:
Pharmacokinetics characteristics were examined by administering compound of the present disclosure and the reference compound (BMS-962212) to male SD rats through intravenous injection (IV). Blood was collected at various time points after administration. The blood was anticoagulated with EDTA-K2. Plasma samples were obtained by centrifugation within 30 min after blood collection, and retained at −80° C. The plasma samples were processed to precipitate the proteins and then analyzed by LC-MS/MS.
(§1) The pharmacokinetic parameters were calculated using WinNonlin 6.3 software by employing a non-compartmental model.

The nature of data set [2]: Pharmacokinetics study in male rabbits, intravenous injection. The format is in vivo. Particulars: male, rabbit, plasma, 1 mg/kg. Here is the method:
Pharmacokinetics properties were examined by administering compound of the present disclosure and the reference compound (BMS-962212) to male rabbits through intravenous injection (IV). Blood was collected at various time points after administration. The blood was anticoagulated with EDTA-K2. Plasma samples were obtained by centrifugation, and retained at −80° C. The plasma samples were processed to precipitate the proteins and then analyzed by LC-MS/MS.
as §1

Data set [3] can be described thus: Pharmacokinetics study in Beagle dogs, intravenous injection. The format is in vivo, Beagle dog. The conditions noted are these: dog, plasma, 0.5 mg/kg. Here is the method:
Pharmacokinetics properties were examined by administering compound of the present disclosure and the reference compound (BMS-962212) to Beagle dog through intravenous injection (IV). Blood was collected at various time points after administration. The blood was anticoagulated with EDTA-K2. Plasma samples were obtained by centrifugation, and retained at −80° C. The plasma samples were processed to precipitate the proteins and then analyzed by LC-MS/MS.
as §1

Data set [4] can be described thus: Repeated dose toxicity study in SD rats, intravenous infusion, daily for 14 days. The format is in vivo. Particulars: rat, in vivo, daily for 14 days, SD rats, read-out: No-observed-adverse-effect level (NOAEL). The protocol: (§2) The administration was repeated daily for 14 days, while clinical observation, body weight and food intake were recorded. […] Observation by gross anatomy and examination of histopathology were also conducted.

Data set [5] has as its system SD rats. Described as above. The format is in vivo. Particulars: 60 mg/kg. The protocol: as §2
Data set [6] can be described thus: Single dose toxicity study in SD rats, intravenous infusion. Particulars: SD, rat, in vivo, iv.
Protocol: (§3) The clinical observation was carried out for 7 days after a single dose, and the body weight of the animals were measured. On the 8th day, blood samples were taken after anesthesia for detection of hematology, blood biochemistry, coagulation and other indicators. Observation was also conducted by gross anatomy.
For data set [7], the system named is SD rats. The data set is described as above. The conditions noted are these: intravenous infusion (2 ml/min).
Protocol: as §3
For data set [8], the target named is human coagulation factor XIa (Homo sapiens (Human), UniProt P03951). As to the kind of experiment: Inhibition of coagulation factor XIa (fluorogenic substrate, enzyme kinetic mode). The format is biochemical. Here is the method:
The following procedures can be used to determine the in vitro inhibition of human coagulation factor XIa by the compound of the present disclosure, as indicated by IC50.
Enzyme: human coagulation factor XIa; manufacturer: Haemtech;
Substrate: Boc-Ile-Glu-Gly-Arg-AMC Acetate salt; manufacturer: Bachem;
Reaction buffer: 50 mM HEPES, 145 mM NaCl, 5 mM KCl, 0.1% BSA, pH 7.4;
The test compounds were dissolved in reaction buffer at different concentrations. 4 μl of coagulation factor XIa and 4 μl of the test compound were added to a 384 well plate, incubated at room temperature for 10 minutes after mixed thoroughly, and then 4 μl of substrate was added to initiate the reaction. For reading fluorescence signal value, enzyme kinetic mode was used. The wavelength of excitation light was selected to be 380 nm, and the wavelength of emission light was selected to be 460 nm. Read once per 30 seconds, and continuously read 20 cycles. Linear regression analysis of signal value-time was performed during the linear reaction period, and the slope was the reaction rate, and the enzyme activity inhibition rate was calculated according to the following formula. The half inhibitory concentration IC50 values of the compound were fitted using GraphPad Prism 5 software, and results are shown in Table 1. Inhibition rate %=(V0−Vi)/(V0−Vblank)×100.
In the formula: V0 is the reaction rate of the control well (using the same volume of reaction buffer without adding test compound), Vi is the reaction rate of test compound, Vblank is a blank well (using the same volume of reaction buffer without adding either enzyme or test compound).

Chain of human coagulation factor XIa (P03951 388-625): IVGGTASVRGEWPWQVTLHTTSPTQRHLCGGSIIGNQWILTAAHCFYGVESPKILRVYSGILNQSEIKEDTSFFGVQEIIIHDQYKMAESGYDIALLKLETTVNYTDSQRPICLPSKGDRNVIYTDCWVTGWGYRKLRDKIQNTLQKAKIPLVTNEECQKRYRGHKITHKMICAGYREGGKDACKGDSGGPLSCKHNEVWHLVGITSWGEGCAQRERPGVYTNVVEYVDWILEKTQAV
Chain of human coagulation factor XIa (P03951 19-387): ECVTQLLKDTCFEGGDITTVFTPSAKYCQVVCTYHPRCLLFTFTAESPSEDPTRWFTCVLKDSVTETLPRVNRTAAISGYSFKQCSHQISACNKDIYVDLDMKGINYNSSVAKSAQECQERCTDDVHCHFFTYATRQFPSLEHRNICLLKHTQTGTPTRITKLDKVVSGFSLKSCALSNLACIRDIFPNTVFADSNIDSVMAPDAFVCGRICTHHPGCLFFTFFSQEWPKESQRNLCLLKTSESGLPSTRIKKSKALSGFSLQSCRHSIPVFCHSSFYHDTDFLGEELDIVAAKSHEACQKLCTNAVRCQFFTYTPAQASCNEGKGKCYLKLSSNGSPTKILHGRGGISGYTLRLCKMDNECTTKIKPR

As usually defined, the AUC(0-inf) is total exposure, with the tail of the curve extrapolated. A lower AUC(0-inf) goes with less exposure. As usually defined, the AUC(0-t) is exposure summed from dosing to a finite time, without extrapolation to infinity. Read a low AUC(0-t) as less exposure. Usually Cmax stands for the maximum level reached in the sampled fluid or tissue. For orientation: clearance means the volume of plasma or blood freed of the substance per unit of time. Read a low clearance as inefficient removal. One may read the half-life as how long it takes for the measured level to halve. A high value points to slow decline. Usually Vd stands for a proportionality between amount in the body and measured concentration, not a real space. Low values mean confinement near the circulation, high ones extensive tissue distribution. What is called NOAEL is the highest dose or exposure tested at which no adverse effect was seen. On to `CN1CCN(c2cccc3c2CCN(C(=O)/C=C/c2c(-n4cnnn4)ccc(Cl)c2F)[C@@H]3C(=O)Nc2ccc(C(=O)O)cc2)C(=O)C1` [BMS-962212, reference compound], for which, in data set [1], the AUC(0-inf) worked out at 4090 ± 654 ng·h/mL, the area under the curve AUC(0-t) stood at 4090 ± 654 ng·h/mL, the Cmax was 11100 ± 1850 ng/mL and the clearance was 20.7 ± 2.7 mL/min/kg. The molecule also gave a half-life in data set [1] of 11.4 ± 1.8 min. In data set [2], this molecule came in with an AUC(0-inf) of 484 ± 38 ng·h/mL, an exposure AUC(0-t) of 476 ± 35 ng·h/mL, a Cmax of 1470 ± 145 ng/mL and a Vd of 1.28 ± 0.28 L/kg. In data set [2], this molecule showed a clearance of 34.6 ± 2.8 mL/min/kg and a half-life of 25.8 ± 6.6 min. Moreover, in data set [3], the total exposure AUC(0-inf) amounted to 846 ± 80 ng·h/mL, the AUC(0-t) stood at 846 ± 80 ng·h/mL, the highest concentration (Cmax) turned out to be 1480 ± 40 ng/mL and the Vd was 0.71 ± 0.04 L/kg. In data set [3], this molecule had a clearance of 9.91 ± 0.94 mL/min/kg and a half-life of 49.8 ± 3 min. Besides, the NOAEL at 14 days in data set [4] is under 60 mg/kg. Also, the “Repeated dose toxicity study in SD rats: females died (10th and 12th day of the administration)” value in data set [5] (daily) is on record as “female animals. Two”. Further, the “Repeated dose toxicity study in SD rats: body weight finding” value in data set [5] (daily for 14 days, female animals) is on record as “Significant weight loss”. Also, the MTD at 7 days in data set [6] stood at 70 mg/kg. Moreover, the “Single dose toxicity study in SD rats: observation” value in data set [7] (50 mg/kg) was “No abnormality was”. Besides, the “Single dose toxicity study in SD rats: observation” value in data set [7] (70 mg/kg) is recorded as “obviously hypoactive”. Further, the “Single dose toxicity study in SD rats: observation” value in data set [7] (75 mg/kg) is “high mortality”. Moreover, in data set [7] (75 mg/kg, listed as Reference compound), the “Single dose toxicity study in SD rats: observation” value is “Death of the animals”.

Broadly, the IC50 is the midpoint of a concentration-inhibition curve. The low end stands for greater potency, the high end for weaker potency. With `CC(C)[C@H](N)C(=O)N1CC=C(c2cccc3c2CCN(C(=O)[C@H]2CC(c4cccc(Cl)c4F)=NO2)[C@@H]3C(=O)Nc2ccc(C(=O)O)cc2)CC1` [Example 1, 4-((S)-5-(1-((S)-2-amino-3-methylbutanoyl)-1,2,3,6-tetrahydropyridin-4-yl)-2-((R)-3-(3-chloro-2-fluorophenyl)-4,5-dihydroisoxazole-5-carbonyl)-1,2,3,4-tetrahydroisoquinoline-1-carboxamido)benzoic acid], the concentration for half-maximal inhibition (IC50) in data set [8] was 0.33 ± 0.06 nM.

The molecule `N[C@@H](CCC(=O)N1CC=C(c2cccc3c2CCN(C(=O)[C@H]2CC(c4cccc(Cl)c4F)=NO2)[C@@H]3C(=O)Nc2ccc(C(=O)O)cc2)CC1)C(=O)O` [Example 2, 4-((S)-5-(1-((S)-4-amino-4-carboxybutanoyl)-1,2,3,6-tetrahydropyridin-4-yl)-2-((R)-3-(3-chloro-2-fluorophenyl)-4,5-dihydroisoxazole-5-carbonyl)-1,2,3,4-tetrahydroisoquinoline-1-carboxamido)benzoic acid] returned a 50% inhibitory concentration (IC50) in data set [8] of 0.21 ± 0.02 nM.

Regarding `N[C@@H](CCC(=O)O)C(=O)N1CC=C(c2cccc3c2CCN(C(=O)[C@H]2CC(c4cccc(Cl)c4F)=NO2)[C@@H]3C(=O)Nc2ccc(C(=O)O)cc2)CC1` [Example 3, 4-((S)-5-(1-((S)-2-amino-4-carboxybutanoyl)-1,2,3,6-tetrahydropyridin-4-yl)-2-((R)-3-(3-chloro-2-fluorophenyl)-4,5-dihydroisoxazole-5-carbonyl)-1,2,3,4-tetrahydroisoquinoline-1-carboxamido)benzoic acid], the IC50 in data set [8] worked out at 0.29 ± 0.04 nM.

Regarding `C[C@H](N)C(=O)N1CC=C(c2cccc3c2CCN(C(=O)[C@H]2CC(c4cccc(Cl)c4F)=NO2)[C@@H]3C(=O)Nc2ccc(C(=O)O)cc2)CC1` [Example 4, 4-((S)-5-(1-((S)-2-aminopropanoyl)-1,2,3,6-tetrahydropyridin-4-yl)-2-((R)-3-(3-chloro-2-fluorophenyl)-4,5-dihydroisoxazole-5-carbonyl)-1,2,3,4-tetrahydroisoquinoline-1-carboxamido)benzoic acid], the IC50 in data set [8] was 0.85 ± 0.03 nM.
